Laboratory results: patent US20070184021A1, “Use of caspase inhibitors as a therapeutic agent against radiation-induced injury” (priority 2002, published 2007)
Residues, ends and D or L forms follow the SMILES beside them. *: point of attachment. Cbz = O=C(OCc1ccccc1)*; CH2F = FC*

Legend:
[1] = test system: Lin− Sca1+ c-kit+ cells; test: Apoptosis assay, annexin V/7-AAD flow cytometry of irradiated Lin- cells, HSC gate; format: cell-based, mouse; conditions: for IR-induced apoptosis: 4 Gy
Protocol: (§1) Isolation of lineage negative hematopoietic (Lin) cells: BM mononuclear cells were incubated with biotin-conjugated rat antibodies specific for murine CD5, Mac-1, CD45R/B220, Ter-119 and Gr-1. The labeled mature lymphoid and myeloid cells were removed twice after they were incubated with goat anti-rat IgG paramagnetic beads (Dynal Inc, Lake Success, N.Y.) at a bead:cell ratio of approximately 4:1 and exposed to a magnetic field. The isolated Lin- cells were washed twice with 2% FCS/HBSS and resuspended in complete medium (RPMI1640 medium with 10%FCS, 200 mM L-glutamine and 100 U/ml penicillin and streptomycin) at 1×10^6/ml.
(§2) Ionizing radiation (IR). Aliquots of 2 ml of Lin- cells (1×10^6/ml in complete medium) were placed into a cell culture tube and exposed to 4 Gy IR on a rotating platform in a Mark IV^137Cesium gamma-irradiator (JL Shepherd, Glendale, Calif.) at a dose rate of 1.21 Gy/min.
(§3) Apoptosis assays. Lin^− cells (1×10^6/ml in complete medium) were exposed to 4 Gy IR or non-irradiated (Control). They were incubated in wells of a 24-well plate at 37° C., 5% CO2 and 100% humidity for 6 or 18 h. For z-VAD treatment studies, the cells were pre-incubated with vehicle (0.2% DMSO) or 100 μM z-VAD for 1 h prior to IR exposure, or they were treated with z-VAD immediately before or 30 min, 1 h, 2 h or 4 h after IR exposure. After 6 or 18 h incubation, 0.5 ml cells ([…]) were washed once with 1 ml 0.1% BSA/PBS. The cells were centrifuged for 5 min, 350× g at 4° C. Next, the cells were incubated with anti-CD16/32 at 4° C. for 15 min to block the Fcγ receptors and then stained with Sca-1-PE and c-kit-APC antibodies for 20 min at 4° C. in the dark. The cells were washed twice with 1 ml 0.1% BSA/PBS, centrifuged for 5 min, 350× g at RT. Next, 100 μl 1× binding buffer (10 mM HEPES, pH 7.4, 140 mM NaCl, and 2.5 mM CaCl2) was added to the pellet along with 3 μl Annexin V-FITC (Pharmingen, San Diego, Calif.) and 5 μl 7-AAD (10 μg/ml, from Molecular Probes, Eugene, Oreg.). The cell suspension was gently mixed and incubated for 15 min at room temperature. The cells were diluted in 400 μl 1× binding buffer immediately prior to subjection of FACS analysis. In all experiments, PE and APC isotype controls and FITC and 7-AAD positive controls were included as appropriate. Two or four-color flow cytometric analyses were performed using a FACS Caliber (Becton Dickinson, San Jose, Calif.).

[2] = test system: Lin− Sca1− c-kit+ cells; test: Apoptosis assay, annexin V/7-AAD flow cytometry of irradiated Lin- cells, progenitor gate; format: cell-based, mouse
Protocol: as §1, §2, §3

[3] = test system: mouse BM cells; test: Cobblestone area-forming cell (CAFC) assay of irradiated BM cells; format: cell-based; conditions: 100 μM z-VAD 1 h prior to 4 Gy IR
Protocol: FIGS. 8A-B. z-VAD partially protects HSC from IR-induced suppression of hematopoietic function. BM cells were pre-incubated with vehicle or 100 μM z-VAD for 1 h and then were exposed to 4 Gy IR. BM cells without IR were used as control. Six hours after the IR, the cells were overlaid on FBMD-1 stromal cell layers. The frequency of CAFC was determined on 7, 14, 21, 28 and 35 days after IR. FIG. 8A—Frequency of CAFC. FIG. 8B—Survival fraction of CAFC as compared to that of control cells. The data presented are mean +/− SEM (n=3 individual mice/groups). Vehicle/IR vs z-VAD/IR, p<0.01 by ANOVA.
z-VAD protects HSC from IR-induced suppression of hematopoietic function. To determine if inhibition of IR-induced HSC apoptosis by z-VAD preserves their hematopoietic function, mouse BM cells were pre-incubated with vehicle (0.2% DMSO) or z-VAD (100 μM) one hour prior to exposure to IR (4 Gy). The hematopoietic function of these cells were analyzed by cobblestone area-forming cell (CAFC) assay (Ploemacher et al., 1989). This in vitro assay provides an estimate of the hematopoietic function of a spectrum of CAFC day-types that correspond to CFU-granulocyte macrophage (CFU-GM) (CAFC day 7), CFU-spleen (CFU-S) day-12 (CAFC day 14), and the primitive HSC with long-term repopulating ability (CAFC day 28-35) (Ploemacher et al., 1989).

[4] = test system: Male C57BL/6 mice; test: Protection of mice from IR-induced lethality; format: in vivo, mouse
Protocol: FIG. 9. z-VAD protects mice from IR-induced lethality. Male C57BL/6 mice were given two i.p. injections of vehicle (0.25 ml PBS with 0.2% DMSO) or z-VAD (6 mg/kg) at one hour prior to and 5 h after exposure to a lethal dose of IR (10.5 Gy). The survival of these mice was monitored daily up to 24 days after exposure to IR. n=6 mice/group).
z-VAD protects mice from IR-induced lethality. Finally, the inventors examined if z-VAD acts as a radioprotectant to protect mice from IR-induced death. Male C57BL/6 mice were given two i.p. injections of vehicle (0.25 ml PBS with 0.2% DMSO) or z-VAD (6 mg/kg) at one hour prior to and 5 h after exposure to a lethal dose of IR (10.5 Gy). […] In contrast, 50% mice receiving z-VAD injections remain alive up to today (24 days) after IR.

[5] = 100 μM z-VAD 1 h prior to 4 Gy IR
[6] = 100 μM z-VAD 1 h prior to 4 Gy IR, 6 and 18 h post IR

Q: Which “necrotic cell death (7-AAD+ cells)” value [1, 5] does the source give for `COC(=O)C[C@H](NC(=O)[C@H](C)NC(=O)[C@@H](NC(=O)OCc1ccccc1)C(C)C)C(=O)CF` [z-VAD, Z-Val-Ala-Asp (OCH3)-Fluoromethylketone, methyl ester] (Cbz-Val-Ala-Asp(OMe)-CH2F) here?
A: Its value is “did not lead to an increase”.

Q: What about the “IR-induced reduction of cell numbers” value [1, 6] of the same molecule?
A: The value was “completely prevented”.

Q: And the “IR-induced apoptosis (annexin V+ and annexin V+/7-AAD+ cells)” value ([1]; 100 μM z-VAD 1 h prior to 4 Gy IR, 6 h after IR)?
A: The value was “significantly inhibited”.

Q: What about the “IR-induced apoptosis (annexin V+ and annexin V+/7-AAD+ cells)” value ([1]; 100 μM z-VAD 1 h prior to 4 Gy IR, 18 h after IR) of the same molecule?
A: Its value is “completely protected”.

Q: What about the IR-induced apoptosis ([1]; 100 μM z-VAD given at 4 h post IR) of the same molecule?
A: The IR-induced apoptosis was “only partially inhibited”.

Q: And the IR-induced apoptosis ([1]; 100 μM z-VAD given prior to IR (-1 h) or up to 2 h post IR)?
A: The IR-induced apoptosis was “abrogated”.

Q: And the “necrotic cell death (7-AAD+ cells)” value [2, 5]?
A: Its value is “did not lead to an increase”.

Q: What about the “IR-induced apoptosis (annexin V+ and annexin V+/7-AAD+ cells)” value ([2]; 100 μM z-VAD 1 h prior to 4 Gy IR, 6 and 18 h after IR) of the same molecule?
A: The value was “attenuated”.

Q: And the “IR-induced reduction of cell numbers” value [2, 6]?
A: Its value is “only partially protected”.

Q: What about the “numbers of cells as percentage of un-irradiated control cells” value ([2]; 100 μM z-VAD 1 h prior to 4 Gy IR, 18 h post IR) of the same molecule?
A: The value was “about 29%”.

Q: What about the “IR-induced apoptosis, compared with the effect in Lin− Sca1+ c-kit+ cells” value ([2]; 100 μM z-VAD given -1 h to 4 h relative to 4 Gy IR) of the same molecule?
A: Its value is “to a less extent”.

Q: What about the “CAFC frequency and survival fraction vs vehicle-treated cells exposed to IR” value ([3]; p<0.01) of the same molecule?
A: The value was “significantly increased”.

Q: And the “survival fraction of CAFC relative to vehicle-treated cells” value ([3]; CAFC day 7-35)?
A: Its value is “about 2 fold”.

Q: And the “survival fraction of CAFC” value ([3]; CAFC day 7)?
A: The value was 0.211.

Q: And the “survival fraction of CAFC” value ([3]; CAFC day 14)?
A: Its value is 0.058.

Q: What about the “survival fraction of CAFC” value ([3]; CAFC day 21) of the same molecule?
A: The value was 0.148.

Q: What about the “survival fraction of CAFC” value ([3]; last value of the list, CAFC day 28 or 35 (four values printed for five days)) of the same molecule?
A: The value was 0.453.

Q: What about the “mice alive after IR” value ([4]; z-VAD 6 mg/kg i.p. 1 h prior to and 5 h after 10.5 Gy IR, 24 days after IR, n=6) of the same molecule?
A: Its value is 50%.

Q: What about the “protection from IR-induced death” value ([4]; z-VAD 6 mg/kg i.p. twice, 1 h prior to and 5 h after 10.5 Gy IR) of the same molecule?
A: The value was “protected half”.
